In the NIST ThermoML archive (doi:10.1016/j.jct.2017.11.004):
Where “and” joins values, the source holds several entries; their conditions need not be identical. Equal values may be shown once.

Settings: Crystal, Rate of evaporation

O=O [oxygen]
Settings | vapor or sublimation pressure
28.99 K | 1.81e-09 kPa
29.48 K | 5.02e-09 kPa and 3.06e-09 kPa
29.98 K | 5.64e-09 kPa
29.99 K | 8.75e-09 kPa
30.47 K | 1.01e-08 kPa and 1.531e-08 kPa
30.98 K | 1.855e-08 kPa and 2.698e-08 kPa
31.48 K | 3.339e-08 kPa and 4.84e-08 kPa
31.77 K | 8.494e-08 kPa
31.98 K | 5.894e-08 kPa
32.48 K | 1.034e-07 kPa and 1.469e-07 kPa
32.98 K | 1.632e-07 kPa

N#N [nitrogen]
Settings | vapor or sublimation pressure [kPa]
23.5 K | 1.9e-10
23.51 K | 1.5e-10
24 K | 4e-10
24.5 K | 8.2e-10
25 K | 1.66e-09
25.49 K | 3.24e-09
25.99 K | 6.63e-09
26.48 K | 1.287e-08
26.99 K | 2.45e-08
27.48 K | 3.89e-08

O [water]
Settings | vapor or sublimation pressure
154.97 K | 3.289e-08 kPa and 2.922e-08 kPa
155.96 K | 4.124e-08 kPa
156.96 K | 5.337e-08 kPa
156.97 K | 6.144e-08 kPa
157.96 K | 7.108e-08 kPa
158.97 K | 9.378e-08 kPa
159.96 K | 1.174e-07 kPa
159.98 K | 1.185e-07 kPa
160.47 K | 1.414e-07 kPa
160.96 K | 1.421e-07 kPa
160.97 K | 1.636e-07 kPa
161.47 K | 1.872e-07 kPa

[Ar] [argon]
Settings | vapor or sublimation pressure
27.51 K | 1.95e-09 kPa and 1.73e-09 kPa
28.01 K | 3.29e-09 kPa and 3.3e-09 kPa
28.5 K | 5.92e-09 kPa
28.51 K | 5.83e-09 kPa
29 K | 1.028e-08 kPa
29.01 K | 1.035e-08 kPa
29.5 K | 1.808e-08 kPa
29.51 K | 1.812e-08 kPa
30 K | 3.105e-08 kPa and 3.116e-08 kPa
30.49 K | 5.189e-08 kPa
30.5 K | 5.157e-08 kPa
30.99 K | 8.27e-08 kPa
31 K | 8.469e-08 kPa

O=C=O [carbon dioxide]
Settings | vapor or sublimation pressure
80.03 K | 7.21e-09 kPa
80.53 K | 8.98e-09 kPa and 8.61e-09 kPa
81.03 K | 1.11e-08 kPa and 1.252e-08 kPa
81.52 K | 1.416e-08 kPa and 1.56e-08 kPa
82.02 K | 1.819e-08 kPa and 1.911e-08 kPa
82.52 K | 2.353e-08 kPa and 2.519e-08 kPa
83.02 K | 2.981e-08 kPa and 3.328e-08 kPa
83.53 K | 3.967e-08 kPa and 4.446e-08 kPa
84.03 K | 5.272e-08 kPa and 5.947e-08 kPa
84.53 K | 6.988e-08 kPa and 6.758e-08 kPa

[Ne] [neon]
Settings | vapor or sublimation pressure [kPa]
8.004 K | 2.98e-08
8.251 K | 6.87e-08
8.502 K | 1.633e-07
8.749 K | 3.617e-07
8.792 K | 4.482e-07
8.996 K | 9.17e-07
9.046 K | 9.212e-07
9.251 K | 1.832e-06
9.468 K | 2.529e-06
9.518 K | 3.574e-06
9.727 K | 5.097e-06
9.776 K | 6.564e-06

[Kr] [krypton]
Settings | vapor or sublimation pressure
38.5 K | 1.68e-09 kPa and 1.86e-09 kPa
39 K | 2.84e-09 kPa and 2.68e-09 kPa
39.49 K | 4.01e-09 kPa
39.5 K | 4.34e-09 kPa
39.99 K | 6.3e-09 kPa
40 K | 6.56e-09 kPa
40.49 K | 9.97e-09 kPa and 9.68e-09 kPa
41 K | 1.527e-08 kPa and 1.475e-08 kPa
41.5 K | 2.312e-08 kPa and 2.262e-08 kPa
42 K | 3.529e-08 kPa and 3.422e-08 kPa
42.5 K | 5.406e-08 kPa
42.51 K | 5.092e-08 kPa

[Xe] [xenon]
Settings | vapor or sublimation pressure
50.01 K | 4.67e-10 kPa and 4.85e-10 kPa
51.02 K | 1.113e-09 kPa and 1.049e-09 kPa
52.02 K | 2.544e-09 kPa
52.52 K | 2.776e-09 kPa and 3.083e-09 kPa
53.02 K | 4.226e-09 kPa and 4.645e-09 kPa
53.52 K | 5.796e-09 kPa and 5.947e-09 kPa
54.02 K | 8.078e-09 kPa and 8.286e-09 kPa
54.52 K | 1.126e-08 kPa and 1.15e-08 kPa
55.02 K | 1.528e-08 kPa and 1.544e-08 kPa
55.52 K | 2.113e-08 kPa
56.02 K | 2.907e-08 kPa and 2.973e-08 kPa
56.52 K | 3.938e-08 kPa
56.53 K | 4.024e-08 kPa
57.03 K | 5.416e-08 kPa and 5.32e-08 kPa
